# Results as given in ChEMBL document CHEMBL2086310, “Alkaloids from Pachysandra terminalis inhibit breast cancer invasion and have potential for development as antimetastasis therapeutic agents” (J Nat Prod, 2012).
# The source made the active and inactive calls. The calls are words filed in the database; no cut-off is given here.
# System: MDA-MB-231
# Assay: Inhibition of epithelial growth factor-induced cell migration of human MDA-MB-231 cells pre-incubated for 24 hrs by cell invasion assay
# Assay type: functional, cell-based
row,IC50 [nM],SMILES
1,870,C/C=C1/C(=O)C[C@H]2[C@@H]3CC[C@H]4C[C@@H](N(C)C)CC[C@]4(C)[C@H]3CC[C@]12C
2,410,CC(C)=CC(=O)N[C@H]1CC[C@@]2(C)[C@@H](CC[C@@H]3[C@@H]2CC[C@]2(C)[C@@H]([C@H](C)N(C)C)CC[C@@H]32)C1 [EPIPACHYSAMINE E]
3,380,O=c1cc(N2CCOCC2)oc2c(-c3ccccc3)cccc12 [LY-294002]
4,320,CC(C)[C@@H]1CN([C@H]2CC[C@@]3(C)[C@@H](CC[C@@H]4[C@@H]3CC[C@]3(C)[C@@H]([C@H](C)N(C)C)CC[C@@H]43)C2=O)C1=O [PACHYSTERMINE A]
5,190,CC(C)[C@@H]1CN([C@H]2CC[C@@]3(C)[C@@H](CC[C@@H]4[C@@H]3CC[C@]3(C)[C@@H]([C@H](C)N(C)C)CC[C@@H]43)[C@H]2O)C1=O [PACHYSTERMINE B]
6,180,CC(C)[C@H]1CN([C@H]2CC[C@@]3(C)[C@@H](CC[C@@H]4[C@@H]3CC[C@]3(C)[C@@H]([C@H](C)N(C)C)[C@@H](O)C[C@@H]43)C2=O)C1=O [TERMINAMINE A]
7,200,CC(=O)O[C@@H]1C[C@]2(C)[C@@H]([C@H](C)N(C)C)[C@@H](O)C[C@H]2[C@@H]2CC[C@H]3[C@@H](O)[C@@H](N4C[C@H](C(C)C)C4=O)C[C@@H](OC(C)=O)[C@]3(C)[C@H]21 [TERMINAMINE B]
8,80,CC(=O)O[C@@H]1C[C@H](N2C[C@H](C(C)C)C2=O)[C@H](O)[C@@H]2CC[C@@H]3[C@H]([C@H](OC(=O)CC(C)C)C[C@]4(C)[C@@H]([C@H](C)N(C)C)[C@@H](O)C[C@@H]34)[C@@]12C [TERMINAMINE C]
9,200,CC(C)=C1CN([C@@H]2CC[C@@]3(C)[C@@H](CC[C@@H]4[C@@H]3CC[C@]3(C)[C@@H]([C@H](C)N(C)C)[C@@H](O)C[C@@H]43)[C@H]2O)C1=O [TERMINAMINE D]
10,70,CC(C)=C1CN([C@@H]2CC[C@@]3(C)[C@@H](CC[C@@H]4[C@@H]3CC[C@]3(C)[C@@H]([C@H](C)N(C)C)CC[C@@H]43)[C@H]2O)C1=O [TERMINAMINE E]
11,1740,C/C=C1\C(=O)C[C@H]2[C@@H]3CC[C@H]4C[C@@H](N(C)C)CC[C@]4(C)[C@H]3CC[C@]12C [Z-salignone]

row,SMILES,IC50 [nM]
1,C[C@@H]([C@H]1CC[C@H]2[C@@H]3CC[C@H]4C[C@@H](NC(=O)c5cccnc5)CC[C@]4(C)[C@H]3CC[C@]12C)N(C)C [EPIPACHYSAMINE B],350
2,C[C@@H]([C@H]1CC[C@H]2[C@@H]3CC[C@H]4[C@H](O)[C@@H](O)CC[C@]4(C)[C@H]3CC[C@]12C)N(C)C [TERMINALINE],360

# Molecular target: Integrin beta-1 (Homo sapiens) (UniProt P05556)
# Sequence (P05556 whole entry): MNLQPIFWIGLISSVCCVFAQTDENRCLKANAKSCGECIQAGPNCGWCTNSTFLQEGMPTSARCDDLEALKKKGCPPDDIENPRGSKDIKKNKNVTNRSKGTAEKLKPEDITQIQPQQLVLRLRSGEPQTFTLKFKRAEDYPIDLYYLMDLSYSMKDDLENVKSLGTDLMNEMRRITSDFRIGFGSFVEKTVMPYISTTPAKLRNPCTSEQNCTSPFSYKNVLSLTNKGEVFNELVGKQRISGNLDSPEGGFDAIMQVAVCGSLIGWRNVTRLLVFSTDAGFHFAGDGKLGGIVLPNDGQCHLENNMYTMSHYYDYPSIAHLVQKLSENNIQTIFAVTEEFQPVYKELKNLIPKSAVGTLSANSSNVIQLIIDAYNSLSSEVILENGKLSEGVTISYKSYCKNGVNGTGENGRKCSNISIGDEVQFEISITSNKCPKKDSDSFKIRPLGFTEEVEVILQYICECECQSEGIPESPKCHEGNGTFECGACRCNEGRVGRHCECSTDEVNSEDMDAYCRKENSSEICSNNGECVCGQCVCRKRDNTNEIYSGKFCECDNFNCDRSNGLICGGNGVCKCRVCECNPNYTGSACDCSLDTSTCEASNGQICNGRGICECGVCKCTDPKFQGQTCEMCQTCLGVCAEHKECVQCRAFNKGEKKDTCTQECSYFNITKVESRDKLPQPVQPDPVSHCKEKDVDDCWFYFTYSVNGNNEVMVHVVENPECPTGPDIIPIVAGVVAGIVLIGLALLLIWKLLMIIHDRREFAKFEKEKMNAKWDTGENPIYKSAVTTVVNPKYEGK
# Assay: Inhibition of integrin beta1 phosphorylation in human […] cells at 1 to 10 uM incubated for 24 hrs by Western blot
# Assay type: cell-based
row,inhibition,SMILES
1,Dose-dependent effect,CC(C)[C@H]1CN([C@H]2CC[C@@]3(C)[C@@H](CC[C@@H]4[C@@H]3CC[C@]3(C)[C@@H]([C@H](C)N(C)C)[C@@H](O)C[C@@H]43)C2=O)C1=O [TERMINAMINE A]

# System: MDA-MB-231
# Assay: Inhibition of epithelial growth factor-induced cell migration of human MDA-MB-231 cells at 10 uM pre-incubated for 24 hrs by cell invasion assay
# Assay type: functional, cell-based
row,SMILES,inhibition
1,CC(=O)[C@H]1CC[C@H]2[C@@H]3CC[C@H]4C[C@H](N(C)C(=O)C=C(C)C)CC[C@]4(C)[C@H]3CC[C@]12C,inactive
2,CC(=O)[C@H]1CC[C@H]2[C@@H]3CC[C@H]4C[C@H](N(C)C(=O)c5ccccc5)CC[C@]4(C)[C@H]3CC[C@]12C,inactive
3,CC(=O)[C@H]1CC[C@H]2[C@@H]3CC[C@H]4C[C@]5(CC[C@]4(C)[C@H]3CC[C@]12C)c1ccccc1C(=O)N5C,inactive
